Results reported in patent US12220399B2, “Pharmaceutical compositions comprising one or more pyrone compounds, and their use for treating inflammatory and neurodegenerative diseases” (NeuroTheryX Canada LTD, priority 2015, dated 2025).

Key:
MO3-13 cells [1] = assay: Protection of MO3-13 oligodendrocytes from Cpz toxicity; format: cell-based, human; details: compound at 5 μM, Cpz at 50 μM, 24 hrs, visual assessment, FIG. 2
Procedure: The protective effects of compounds […] on MO3-13 cells from Cpz toxicity were then determined. […] Cpz at a final concentration of 50 μM was solubilized in 100% ethanol was added to selected dishes with compound A1 or A2 at 5 μM in DMSO, or DMSO alone as a control.

[2] = tested on: myelin basic protein (MBP); assay: Induction of myelin basic protein (MBP) production, anti-MBP slot blot of MO3-13 whole cell extracts; format: cell-based, human; details: FIG. 3
Procedure: Dilutions (0.1 mg/mL) of MO3-13 whole cell extracts were prepared and the proteins (5 μg) from the dilutions were blotted onto nitrocellulose membrane using a slot blotter. The non-protein sites on the blot were blocked with 2% ECL block in PBS-Tween20. Primary anti-Bov MBP was diluted in block solution at 300×. The primary antibody was incubated overnight at 4° C. with gentle shaking. The following day the blot was developed using enhanced ECL (GE Healthcare) method. Image of bound antibody were captured using Image Lab software driving a Bio-Rad ChemiDoc XRS+ image capture system.

MO3-13 cells [3] = details: differentiated (serum deprived 48 hrs) MO3-13 cells, increasing amounts of Cpz, 24 hrs, visual assessment by phase contrast, FIG. 1
Procedure: MO3-13 cells were plated onto 10 cm cell culture dishes and grown in DMEM containing 5% FBS. Cells were grown to 75% confluence, after which serum containing DMEM medium was replaced with FBS free DMEM. Cells were grown for 48 hrs under serum deprived conditions.

[4] = MO3-13 cells treated with Cpz (50 μM) plus compound (5 μM)
[5] = MO3-13 cells treated with compound alone (5 μM)

| Compound | protection of human oligodendrocytes (MO3-13) against the toxicity of Cpz (MO3-13 cells [1]) | MBP bound by anti-MBP [2, 4] | MBP bound by anti-MBP [2, 5] | Cpz toxicity to MO3-13 cells (MO3-13 cells [3]) | anti-MBP antibody binding as compared with non-treated (DMSO) cells ([2]; MO3-13 cells treated with Cpz (50 μM)) |
| --- | --- | --- | --- | --- | --- |
| O=c1cc(-c2ccccc2)cc(-c2ccccc2)o1 [A3, 4,6-diphenyl-2H-pyran-2-one] | protection | significantly higher | significantly higher |  |  |
| O=C(NN=C1CCCCC1)C(=O)NN=C1CCCCC1 [Cpz, cuprizone, reference compound] |  |  |  | toxic | reduced |
| O=c1cc(-c2ccccc2)cc(C2CCCCC2)o1 [compound A2, 6-cyclohexyl-4-phenyl-2H-pyran-2-one] | protection | significantly higher | significantly higher |  |  |
